Consider 52 compounds from PubChem BioAssay AID1996.

The structures appear in SMILES notation. ≈ marks a conversion by molar mass, not a printed value.

For this data set the following is noted: buffer; pH 7.4; 200.0 µM.
Turning to `CC(C)c1ccc(NC(=O)C2CC(=O)N(C3CCCC3)C2)cc1` (configuration not stated), the solubility (kinetic) – broadly, the concentration staying in solution when a stock, usually in DMSO, is diluted into the medium – was 36.1 µg/mL (≈ 115 µM).

For the compound `O=C(Cc1ccc(Br)cc1)N1CCc2ccccc2C1`, the solubility (kinetic) came out at 3.9 µg/mL (≈ 11.8 µM).

As to `CCN(CC)C(=O)c1c(-c2ccccc2)oc2ccc(O)cc12`, the solubility (kinetic) stood at 31.8 µg/mL (≈ 103 µM).

As to `COc1ccccc1OCC(O)CN1CCN(CC(=O)Nc2c(C)cccc2C)CC1.Cl` (configuration not stated), the solubility (kinetic) was over 75.1 µg/mL.

As for `NC(=O)CCn1ccc2ccccc21`, the solubility (kinetic) is over 28.2 µg/mL.

In the case of `COc1cccc(Nc2ncnc3sccc23)c1`, the kinetic solubility is over 38.6 µg/mL.

In the case of `CCOC(=O)C1CCCN(C(=O)Nc2c(-c3ccccc3)noc2C)C1` (configuration not stated), the solubility (kinetic) turned out to be 52.4 µg/mL (≈ 147 µM).

The compound `CC(NC(=O)COC(=O)c1cccc(S(=O)(=O)N2CCCC2)c1)c1ccccc1` (configuration not stated) displayed a solubility (kinetic) of 11.8 µg/mL (≈ 28.3 µM).

In the case of `Cl.c1ccc(Cc2ccc(OCCn3ccnc3)cc2)cc1`, the solubility (kinetic) turned out to be 41.3 µg/mL.

For the compound `CCCC(=O)OCC(=O)c1[nH]c(C)c(C(C)=O)c1C`, the solubility (kinetic) was over 39.8 µg/mL.

In turn, `Cn1cc(S(=O)(=O)c2ccccc2)n(C)c1=O` registered a solubility (kinetic) of 31 µg/mL (≈ 123 µM).

`CCn1c(NC(=O)c2ccccc2)nc2ccccc21` gave a kinetic solubility of 3 µg/mL (≈ 11.3 µM).

In the case of `CCOC(=O)CNC(=S)SC`, the kinetic solubility came out at 21.8 µg/mL (≈ 113 µM).

`NC(=NC(=O)c1ccc(OC(F)(F)F)cc1)c1ccc(C(F)(F)F)cn1` came in with a kinetic solubility of under 0.3 µg/mL.

`CC1(C)C(=O)Nc2ccccc2N1C(=O)COc1ccc(C#N)cc1` showed a kinetic solubility of 38.1 µg/mL (≈ 114 µM).

In the case of `Cc1ccc(C2(C)NC(=O)N(CC(=O)N3CCN(S(=O)(=O)c4cccc([N+](=O)[O-])c4)CC3)C2=O)cc1` (configuration not stated), the solubility (kinetic) came out at 12.7 µg/mL (≈ 24.6 µM).

`Cc1cc(NC(=O)CSc2nc3ccccc3n2CC(C)C)no1` came in with a kinetic solubility of 7.3 µg/mL (≈ 21.2 µM).

The compound `O=C(c1cccc(OCc2ccccc2)c1)N1CCOCC1` showed a solubility (kinetic) of 42.9 µg/mL (≈ 144 µM).

For the compound `Cc1ccc(C(=O)NC(C)c2ccc(-n3ccnc3)cc2)o1` (configuration not stated), the solubility (kinetic) worked out at 40.8 µg/mL (≈ 138 µM).

Regarding `O=C(CCn1c(=S)oc2ccccc21)Nc1cccc(O)c1`, the solubility (kinetic) came out at 8.6 µg/mL (≈ 27.4 µM).

With `O=C(COC(=O)c1ccccc1O)NCCc1c[nH]c2ccccc12`, the kinetic solubility was 7.8 µg/mL (≈ 23.1 µM).

On to `Nc1nc(O)c(Sc2ccccc2[N+](=O)[O-])c(=O)[nH]1`, for which the solubility (kinetic) is over 42 µg/mL.

The compound `Cc1ccc2c(c1)c1c3n2CCN(C=O)C3CCC1` (configuration not stated) returned a solubility (kinetic) of 28.1 µg/mL (≈ 110 µM).

`C=CCn1c(O)c(/C=N/N2CCCCC2)c(=O)[nH]c1=O` yielded a kinetic solubility of over 41.7 µg/mL.

In turn, `CCOC(=O)C(=CNc1ccc(OC)cc1[N+](=O)[O-])C(=O)OCC` registered a solubility (kinetic) of 0.9 µg/mL (≈ 2.66 µM).

With `CC(C)c1ccc(N=Cc2c(O)c3ccccc3oc2=O)cc1`, the solubility (kinetic) is 4.3 µg/mL (≈ 14 µM).

`FC(F)(F)c1ccc2c(c1)NCC1CCCN21` (configuration not stated) displayed a kinetic solubility of 13 µg/mL (≈ 53.7 µM).

In the case of `CN(C)CCCN1C(=O)c2cc3ccccc3cc2C1=O`, the kinetic solubility came out at 27.8 µg/mL (≈ 98.5 µM).

Turning to `O=[N+]([O-])c1cccnc1Oc1ccc(F)cc1`, the kinetic solubility stood at 31.6 µg/mL (≈ 135 µM).

In turn, `CC(=O)Oc1cccc(N2C(=O)C3C4C=CC(CC4)C3C2=O)c1` (configuration not stated) gave a kinetic solubility of 32.8 µg/mL (≈ 105 µM).

Turning to `CCn1c(=S)[nH]c2sc3c(c2c1=O)CCCC3`, the solubility (kinetic) was 9.2 µg/mL (≈ 34.5 µM).

In the case of `N#CCc1ccc(NC(=O)Cn2c(=O)oc3ccccc32)cc1`, the kinetic solubility turned out to be 6.7 µg/mL (≈ 21.8 µM).

Regarding `Cc1ccc(N2C(=O)CC3(CCCC3)CC2=O)cc1`, the solubility (kinetic) turned out to be 34.3 µg/mL (≈ 133 µM).

`CC(C)(C)NC(=O)c1ccc2c(c1)C(=O)N(Cc1ccco1)C2=O` showed a kinetic solubility of 46 µg/mL (≈ 141 µM).

`O=C(NC1CCCCC1)NC1C2CC3CC(C2)CC1C3` (configuration not stated) showed a kinetic solubility of 2.3 µg/mL (≈ 8.32 µM).

With `Cc1nc([N+](=O)[O-])c(C(=O)OCc2ccccc2F)n1C`, the solubility (kinetic) turned out to be 41.8 µg/mL (≈ 143 µM).

With `COc1cccc(CNC(=O)c2ccc(C3SCCS3)cc2)c1`, the kinetic solubility is 10.5 µg/mL (≈ 30.4 µM).

The compound `CNCC(=O)O` gave a kinetic solubility of 5.6 µg/mL (≈ 62.9 µM).

In the case of `O=C(O)Cn1c(=O)n(Cc2ccccc2)c2ccccc21`, the kinetic solubility was over 42.3 µg/mL.

Turning to `O=C1Nc2ccccc2C1=Nc1ccc(F)cc1`, the kinetic solubility is over 36 µg/mL.

The compound `O=C1C2C3C=CC(CC3)C2C(=O)N1c1ccccc1` (configuration not stated) had a solubility (kinetic) of 25.9 µg/mL (≈ 102 µM).

For `O=C(CN1C(=O)NC(c2ccccc2)(c2ccccc2)C1=O)NCc1ccc(F)cc1`, the solubility (kinetic) came out at 6.4 µg/mL (≈ 15.3 µM).

As for `O=C(c1ccsc1)N1CCCC(N2CCOCC2)C1` (configuration not stated), the solubility (kinetic) is over 42.1 µg/mL.

For the compound `Cc1ccc(-c2c[nH]c(=S)n2-c2ccccc2F)cc1`, the kinetic solubility was found to be 11.2 µg/mL (≈ 39.4 µM).

With `CC(=O)Nc1ccc(NS(=O)(=O)c2ccc3c(c2)oc(=O)n3C)cc1`, the kinetic solubility is over 54.2 µg/mL.

For `N#C/C(=C\Nc1ccc(Cl)cc1)S(=O)(=O)c1ccccn1`, the solubility (kinetic) turned out to be 8.7 µg/mL (≈ 27.2 µM).

In turn, `Cn1c(SCC(=O)NC2CC2)nnc1-c1ccccn1` had a kinetic solubility of over 43.4 µg/mL.

`Cc1ccc(S(=O)(=O)N2CC(C)N(S(C)(=O)=O)C2)cc1` (configuration not stated) showed a kinetic solubility of over 47.8 µg/mL.

Compound `CC(C)(C)NC(=O)C1CC1(c1ccccc1)c1ccccc1` (configuration not stated) displayed a solubility (kinetic) of 2.8 µg/mL (≈ 9.54 µM).

`CC(/C=C1\SC(=Nc2cccnc2)NC1=O)=C\c1ccccc1` yielded a kinetic solubility of 1.7 µg/mL (≈ 5.29 µM).

Consider `NC(=O)c1ccc(NC(=O)CNC(c2ccccc2)c2ccccc2)cc1`, for which the kinetic solubility was 3.7 µg/mL (≈ 10.3 µM).

The compound `C#CCOC(=O)Nc1cc(C)n(-c2ccccc2)n1` yielded a kinetic solubility of over 38.3 µg/mL.
